According to ChEMBL document CHEMBL1152560, “Substituted 2-arylbenzothiazoles as kinase inhibitors: hit-to-lead optimization” (Bioorg Med Chem, 2009):

How the values were obtained:
[1] = molecular target: Mitogen-activated protein kinase kinase kinase kinase 4 (Homo sapiens) (UniProt O95819); experiment: Residual activity of MAP4K4 at 1 uM by microplate scintillation counting
[2] = molecular target: Protein-tyrosine kinase 6 (Homo sapiens) (UniProt Q13882); experiment: Residual activity of BRK at 0.1 uM by microplate scintillation counting
[3] = molecular target: High affinity nerve growth factor receptor (Homo sapiens) (UniProt P04629); experiment: Residual activity of TRK-A at 0.1 uM by microplate scintillation counting
[4] = molecular target: Dual specificity mitogen-activated protein kinase kinase 1 (Homo sapiens) (UniProt Q02750); experiment: Residual activity of wild type MEK1 at 0.1 uM by microplate scintillation counting
[5] = Residual activity of S6K at 1 uM by microplate scintillation counting
[6] = molecular target: Protein-tyrosine kinase 6 (Homo sapiens) (UniProt Q13882); experiment: Residual activity of BRK at 10 uM by microplate scintillation counting
[7] = molecular target: Cyclin-dependent kinase 4/cyclin D1 (Homo sapiens) (UniProt P11802+P24385); experiment: Residual activity of CDK4/Cyclin D1 at 0.1 uM by microplate scintillation counting; format: protein-complex assay
[8] = molecular target: Rho-associated protein kinase 1 (Homo sapiens) (UniProt Q13464); experiment: Residual activity of ROCK1 at 1 uM by microplate scintillation counting
[9] = molecular target: T1, Inhibitor of nuclear factor kappa-B kinase subunit epsilon (Homo sapiens) (UniProt Q14164); experiment: Residual activity of IKKepsilon at 1 uM by microplate scintillation counting
T1 sequence (whole entry): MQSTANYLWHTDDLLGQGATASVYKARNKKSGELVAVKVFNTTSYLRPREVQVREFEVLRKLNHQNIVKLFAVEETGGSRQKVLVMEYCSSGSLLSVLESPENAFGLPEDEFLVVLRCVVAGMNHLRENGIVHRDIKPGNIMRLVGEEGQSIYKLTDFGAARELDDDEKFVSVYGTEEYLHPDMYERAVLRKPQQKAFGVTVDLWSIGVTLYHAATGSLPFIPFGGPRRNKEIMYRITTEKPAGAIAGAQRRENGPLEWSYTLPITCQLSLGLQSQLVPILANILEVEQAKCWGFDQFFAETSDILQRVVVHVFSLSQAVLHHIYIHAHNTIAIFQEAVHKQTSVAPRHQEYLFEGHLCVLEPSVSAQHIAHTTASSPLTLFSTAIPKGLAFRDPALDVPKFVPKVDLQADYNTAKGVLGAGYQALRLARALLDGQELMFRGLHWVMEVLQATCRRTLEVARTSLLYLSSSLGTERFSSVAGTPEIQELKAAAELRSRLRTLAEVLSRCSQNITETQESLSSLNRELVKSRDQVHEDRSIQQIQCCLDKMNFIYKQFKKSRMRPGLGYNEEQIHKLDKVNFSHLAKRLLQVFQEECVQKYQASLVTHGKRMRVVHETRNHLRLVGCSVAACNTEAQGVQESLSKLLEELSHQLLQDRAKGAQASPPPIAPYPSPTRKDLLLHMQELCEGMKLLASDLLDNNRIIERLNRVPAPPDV

[10] = molecular target: Ribosomal protein S6 kinase alpha-3 (Homo sapiens) (UniProt P51812); experiment: Residual activity of RPS6KA3 at 10 uM by microplate scintillation counting
[11] = molecular target: CDK1/Cyclin A (Homo sapiens) (UniProt P06493+P20248); experiment: Residual activity of CDK1/Cyclin A at 1 uM by microplate scintillation counting; format: protein-complex assay
[12] = molecular target: T2, Aurora kinase C (Homo sapiens) (UniProt Q9UQB9); experiment: Residual activity of Aurora-C at 1 uM by microplate scintillation counting
T2 sequence (whole entry): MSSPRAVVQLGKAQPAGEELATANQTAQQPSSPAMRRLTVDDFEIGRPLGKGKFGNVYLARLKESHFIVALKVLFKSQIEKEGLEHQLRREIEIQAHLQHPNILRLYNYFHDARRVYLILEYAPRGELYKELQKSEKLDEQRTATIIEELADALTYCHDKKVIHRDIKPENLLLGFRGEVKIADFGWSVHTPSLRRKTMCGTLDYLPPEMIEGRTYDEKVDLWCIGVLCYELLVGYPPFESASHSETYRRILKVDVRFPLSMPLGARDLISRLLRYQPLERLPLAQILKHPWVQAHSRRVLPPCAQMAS

[13] = molecular target: G protein-coupled receptor kinase 6 (Homo sapiens) (UniProt P43250); experiment: Residual activity of GRK6 at 0.1 uM by microplate scintillation counting
[14] = molecular target: Mitogen-activated protein kinase 10 (Homo sapiens) (UniProt P53779); experiment: Residual activity of JNK3 at 10 uM by microplate scintillation counting
[15] = molecular target: Serine/threonine-protein kinase pim-1 (Homo sapiens) (UniProt P11309); experiment: Residual activity of PIM1 at 10 uM by microplate scintillation counting
[16] = molecular target: T3, Serine/threonine-protein kinase Nek3 (Homo sapiens) (UniProt P51956); experiment: Residual activity of NEK3 at 1 uM by microplate scintillation counting
T3 sequence (whole entry): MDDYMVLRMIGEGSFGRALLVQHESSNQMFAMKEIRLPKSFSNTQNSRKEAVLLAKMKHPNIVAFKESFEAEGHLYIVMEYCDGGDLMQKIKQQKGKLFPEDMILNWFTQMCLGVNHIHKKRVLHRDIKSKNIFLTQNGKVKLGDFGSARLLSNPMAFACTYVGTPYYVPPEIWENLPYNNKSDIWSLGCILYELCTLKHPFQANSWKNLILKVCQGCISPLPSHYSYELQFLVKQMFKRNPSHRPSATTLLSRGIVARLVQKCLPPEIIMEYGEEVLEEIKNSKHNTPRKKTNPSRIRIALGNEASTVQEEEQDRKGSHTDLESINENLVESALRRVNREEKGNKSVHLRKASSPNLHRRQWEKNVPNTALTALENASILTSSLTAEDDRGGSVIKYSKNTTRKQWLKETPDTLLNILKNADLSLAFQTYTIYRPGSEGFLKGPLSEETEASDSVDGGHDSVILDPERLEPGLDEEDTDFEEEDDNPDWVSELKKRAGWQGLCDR

Mitogen-activated protein kinase kinase kinase kinase 4 (Homo sapiens), sequence (O95819 2-1239 limits assumed): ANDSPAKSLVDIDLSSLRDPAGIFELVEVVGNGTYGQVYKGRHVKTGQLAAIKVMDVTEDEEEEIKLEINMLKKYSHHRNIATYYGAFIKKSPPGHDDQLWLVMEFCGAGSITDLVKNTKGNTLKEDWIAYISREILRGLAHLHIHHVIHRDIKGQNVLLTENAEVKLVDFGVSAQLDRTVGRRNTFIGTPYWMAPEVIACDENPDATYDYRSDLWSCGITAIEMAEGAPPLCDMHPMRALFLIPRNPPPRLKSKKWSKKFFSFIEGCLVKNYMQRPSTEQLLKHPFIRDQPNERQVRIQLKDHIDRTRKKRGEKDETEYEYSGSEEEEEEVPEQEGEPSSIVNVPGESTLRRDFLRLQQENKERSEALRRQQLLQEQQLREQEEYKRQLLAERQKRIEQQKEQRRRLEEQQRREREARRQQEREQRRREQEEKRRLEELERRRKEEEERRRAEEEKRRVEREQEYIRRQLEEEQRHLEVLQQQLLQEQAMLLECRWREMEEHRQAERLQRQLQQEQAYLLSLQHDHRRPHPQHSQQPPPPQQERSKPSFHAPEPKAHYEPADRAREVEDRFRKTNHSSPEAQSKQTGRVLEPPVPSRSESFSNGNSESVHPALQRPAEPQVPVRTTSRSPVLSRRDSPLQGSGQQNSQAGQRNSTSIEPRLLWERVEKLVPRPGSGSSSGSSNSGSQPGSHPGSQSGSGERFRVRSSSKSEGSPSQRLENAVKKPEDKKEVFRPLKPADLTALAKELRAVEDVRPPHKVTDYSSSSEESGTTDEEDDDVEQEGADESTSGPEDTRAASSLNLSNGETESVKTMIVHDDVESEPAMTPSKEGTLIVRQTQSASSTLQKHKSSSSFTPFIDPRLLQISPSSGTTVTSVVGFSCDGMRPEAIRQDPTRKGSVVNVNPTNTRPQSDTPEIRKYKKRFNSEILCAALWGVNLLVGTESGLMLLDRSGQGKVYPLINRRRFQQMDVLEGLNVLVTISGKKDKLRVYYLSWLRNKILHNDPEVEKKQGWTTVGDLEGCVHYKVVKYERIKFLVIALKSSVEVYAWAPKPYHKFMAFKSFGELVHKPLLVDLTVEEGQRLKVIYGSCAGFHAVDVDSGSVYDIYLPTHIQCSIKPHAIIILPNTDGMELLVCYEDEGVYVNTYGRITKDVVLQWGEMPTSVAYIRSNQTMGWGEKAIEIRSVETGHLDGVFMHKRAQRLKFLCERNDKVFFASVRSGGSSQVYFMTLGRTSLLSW
G protein-coupled receptor kinase 6 (Homo sapiens), sequence (P43250 whole entry, looked up): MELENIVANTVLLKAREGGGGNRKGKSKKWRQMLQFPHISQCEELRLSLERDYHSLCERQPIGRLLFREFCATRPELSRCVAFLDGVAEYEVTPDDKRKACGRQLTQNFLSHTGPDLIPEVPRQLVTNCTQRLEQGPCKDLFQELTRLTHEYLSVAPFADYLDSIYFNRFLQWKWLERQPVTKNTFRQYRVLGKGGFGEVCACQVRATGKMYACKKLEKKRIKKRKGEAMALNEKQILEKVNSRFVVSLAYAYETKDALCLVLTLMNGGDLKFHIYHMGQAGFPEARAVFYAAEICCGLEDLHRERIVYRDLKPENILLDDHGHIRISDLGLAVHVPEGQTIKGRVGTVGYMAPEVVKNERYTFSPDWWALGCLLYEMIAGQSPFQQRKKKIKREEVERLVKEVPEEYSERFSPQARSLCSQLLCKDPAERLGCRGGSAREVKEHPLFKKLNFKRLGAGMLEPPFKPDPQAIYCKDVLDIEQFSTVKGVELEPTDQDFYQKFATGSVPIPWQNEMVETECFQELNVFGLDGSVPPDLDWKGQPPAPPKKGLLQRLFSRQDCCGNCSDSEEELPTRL
CDK1/Cyclin A (Homo sapiens), sequence (P06493 whole entry, looked up): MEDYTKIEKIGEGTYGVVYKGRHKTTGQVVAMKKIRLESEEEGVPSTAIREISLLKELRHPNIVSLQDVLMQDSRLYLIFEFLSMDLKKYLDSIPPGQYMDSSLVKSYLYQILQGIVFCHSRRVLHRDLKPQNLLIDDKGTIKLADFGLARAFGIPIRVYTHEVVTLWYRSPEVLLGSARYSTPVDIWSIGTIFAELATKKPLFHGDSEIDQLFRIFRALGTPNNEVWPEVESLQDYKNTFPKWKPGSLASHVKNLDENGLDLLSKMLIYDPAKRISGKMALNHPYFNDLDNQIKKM
CDK1/Cyclin A (Homo sapiens), sequence (P20248 whole entry, looked up): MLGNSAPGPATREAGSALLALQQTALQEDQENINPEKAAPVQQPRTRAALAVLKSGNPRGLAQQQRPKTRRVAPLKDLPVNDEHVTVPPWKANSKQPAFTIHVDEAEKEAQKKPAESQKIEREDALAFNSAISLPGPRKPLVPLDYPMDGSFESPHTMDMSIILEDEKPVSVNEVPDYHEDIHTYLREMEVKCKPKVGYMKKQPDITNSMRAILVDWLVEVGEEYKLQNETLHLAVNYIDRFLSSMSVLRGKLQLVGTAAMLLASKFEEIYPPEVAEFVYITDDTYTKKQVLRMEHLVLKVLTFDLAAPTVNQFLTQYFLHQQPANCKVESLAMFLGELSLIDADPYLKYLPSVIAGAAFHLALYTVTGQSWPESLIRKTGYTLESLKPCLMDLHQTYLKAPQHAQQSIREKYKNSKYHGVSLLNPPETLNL
Protein-tyrosine kinase 6 (Homo sapiens), sequence (Q13882 whole entry, looked up): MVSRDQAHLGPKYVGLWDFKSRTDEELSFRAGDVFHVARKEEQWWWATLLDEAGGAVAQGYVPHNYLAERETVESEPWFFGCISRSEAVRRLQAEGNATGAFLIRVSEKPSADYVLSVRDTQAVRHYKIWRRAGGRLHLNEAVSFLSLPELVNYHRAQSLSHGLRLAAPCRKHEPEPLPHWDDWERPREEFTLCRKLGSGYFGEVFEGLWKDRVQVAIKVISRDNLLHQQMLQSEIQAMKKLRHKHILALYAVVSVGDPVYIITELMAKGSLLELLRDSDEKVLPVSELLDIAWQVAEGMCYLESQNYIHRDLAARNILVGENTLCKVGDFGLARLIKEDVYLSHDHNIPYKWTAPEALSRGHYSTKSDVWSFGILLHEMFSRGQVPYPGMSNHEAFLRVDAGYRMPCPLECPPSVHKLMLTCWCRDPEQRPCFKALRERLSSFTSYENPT
Rho-associated protein kinase 1 (Homo sapiens), sequence (Q13464 2-1354 limits assumed): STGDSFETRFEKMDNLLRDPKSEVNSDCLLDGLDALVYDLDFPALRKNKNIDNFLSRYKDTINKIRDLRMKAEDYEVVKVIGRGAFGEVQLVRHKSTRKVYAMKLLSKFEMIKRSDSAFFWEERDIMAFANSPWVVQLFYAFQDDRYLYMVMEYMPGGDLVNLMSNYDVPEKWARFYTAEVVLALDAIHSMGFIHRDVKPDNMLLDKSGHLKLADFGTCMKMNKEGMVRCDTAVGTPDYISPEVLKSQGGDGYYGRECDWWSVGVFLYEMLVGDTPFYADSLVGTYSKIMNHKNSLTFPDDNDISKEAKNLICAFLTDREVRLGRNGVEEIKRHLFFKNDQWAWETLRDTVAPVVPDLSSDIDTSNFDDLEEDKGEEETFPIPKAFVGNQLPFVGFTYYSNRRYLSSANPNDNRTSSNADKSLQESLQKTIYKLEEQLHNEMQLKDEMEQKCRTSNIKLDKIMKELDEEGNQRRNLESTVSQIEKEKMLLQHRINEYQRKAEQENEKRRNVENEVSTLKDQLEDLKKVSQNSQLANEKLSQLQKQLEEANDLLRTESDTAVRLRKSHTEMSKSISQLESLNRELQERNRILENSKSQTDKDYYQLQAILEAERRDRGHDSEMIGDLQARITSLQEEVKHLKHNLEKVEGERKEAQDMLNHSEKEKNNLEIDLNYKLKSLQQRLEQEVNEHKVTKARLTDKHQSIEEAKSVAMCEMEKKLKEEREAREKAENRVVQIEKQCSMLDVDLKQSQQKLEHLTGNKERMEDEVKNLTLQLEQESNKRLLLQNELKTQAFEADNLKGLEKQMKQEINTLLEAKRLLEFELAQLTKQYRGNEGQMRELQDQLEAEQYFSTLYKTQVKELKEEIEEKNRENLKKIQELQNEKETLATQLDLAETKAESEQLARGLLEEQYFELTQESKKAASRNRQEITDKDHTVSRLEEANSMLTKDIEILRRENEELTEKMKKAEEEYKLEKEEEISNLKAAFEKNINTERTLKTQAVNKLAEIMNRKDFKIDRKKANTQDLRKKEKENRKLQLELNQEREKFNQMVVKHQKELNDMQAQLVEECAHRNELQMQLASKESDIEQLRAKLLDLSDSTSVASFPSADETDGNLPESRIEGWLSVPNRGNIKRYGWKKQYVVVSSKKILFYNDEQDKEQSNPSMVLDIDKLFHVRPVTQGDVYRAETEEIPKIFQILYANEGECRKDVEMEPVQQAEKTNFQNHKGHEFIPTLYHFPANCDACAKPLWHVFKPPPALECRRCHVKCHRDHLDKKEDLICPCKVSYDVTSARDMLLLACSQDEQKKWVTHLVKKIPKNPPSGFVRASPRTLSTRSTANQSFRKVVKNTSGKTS
Mitogen-activated protein kinase 10 (Homo sapiens), sequence (P53779 whole entry): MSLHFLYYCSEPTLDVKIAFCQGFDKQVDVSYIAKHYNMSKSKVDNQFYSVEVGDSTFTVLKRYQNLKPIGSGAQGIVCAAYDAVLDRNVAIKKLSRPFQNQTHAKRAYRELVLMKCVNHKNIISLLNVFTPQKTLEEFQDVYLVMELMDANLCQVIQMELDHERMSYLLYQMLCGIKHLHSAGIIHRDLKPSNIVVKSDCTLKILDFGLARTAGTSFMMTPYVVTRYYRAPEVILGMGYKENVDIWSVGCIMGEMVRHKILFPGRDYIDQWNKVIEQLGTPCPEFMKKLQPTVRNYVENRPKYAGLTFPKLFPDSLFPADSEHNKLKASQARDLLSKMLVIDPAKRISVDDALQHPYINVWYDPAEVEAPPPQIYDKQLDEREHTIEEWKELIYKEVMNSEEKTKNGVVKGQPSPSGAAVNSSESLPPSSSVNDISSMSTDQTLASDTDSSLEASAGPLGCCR

SMILES	residual activity [1] [%]	residual activity [2] [%]	residual activity [3] [%]	residual activity [4] [%]	residual activity [5] [%]	residual activity [6] [%]	residual activity [7] [%]	residual activity [8] [%]	residual activity [9] [%]	residual activity [10] [%]	residual activity [11] [%]	residual activity [12] [%]	residual activity [13] [%]	residual activity [14] [%]	residual activity [15] [%]	residual activity [16] [%]
COc1cc2c(Oc3ccc(-c4nc5ccccc5s4)cc3F)ncnc2cc1OCCCN1CCN(C)CC1	97	35	88	79	95	0	98	105	81	36	102	10	88	45	97	103
COc1cc2c(Oc3ccc(-c4nc5ccccc5s4)cc3)ncnc2cc1OCCCN1CCCC1	88	57	83	101	75	0	98	93	98	58	111	7	88	84	74	110
COc1cc2c(Oc3ccc(-c4nc5ccccc5s4)cc3)ncnc2cc1OCCCN1CCN(C)CC1	81	65	104	87	69	1	96	102	90	50	101	11	79	52	124	102
